Test results as given in BindingDB's records for doi:10.1016/j.bmcl.2017.11.040 (Hawaii Biotech, 2018).

Target: T1, Calmodulin-sensitive adenylate cyclase (Bacillus anthracis, UniProt P40136)
T1 sequence (P40136 whole entry): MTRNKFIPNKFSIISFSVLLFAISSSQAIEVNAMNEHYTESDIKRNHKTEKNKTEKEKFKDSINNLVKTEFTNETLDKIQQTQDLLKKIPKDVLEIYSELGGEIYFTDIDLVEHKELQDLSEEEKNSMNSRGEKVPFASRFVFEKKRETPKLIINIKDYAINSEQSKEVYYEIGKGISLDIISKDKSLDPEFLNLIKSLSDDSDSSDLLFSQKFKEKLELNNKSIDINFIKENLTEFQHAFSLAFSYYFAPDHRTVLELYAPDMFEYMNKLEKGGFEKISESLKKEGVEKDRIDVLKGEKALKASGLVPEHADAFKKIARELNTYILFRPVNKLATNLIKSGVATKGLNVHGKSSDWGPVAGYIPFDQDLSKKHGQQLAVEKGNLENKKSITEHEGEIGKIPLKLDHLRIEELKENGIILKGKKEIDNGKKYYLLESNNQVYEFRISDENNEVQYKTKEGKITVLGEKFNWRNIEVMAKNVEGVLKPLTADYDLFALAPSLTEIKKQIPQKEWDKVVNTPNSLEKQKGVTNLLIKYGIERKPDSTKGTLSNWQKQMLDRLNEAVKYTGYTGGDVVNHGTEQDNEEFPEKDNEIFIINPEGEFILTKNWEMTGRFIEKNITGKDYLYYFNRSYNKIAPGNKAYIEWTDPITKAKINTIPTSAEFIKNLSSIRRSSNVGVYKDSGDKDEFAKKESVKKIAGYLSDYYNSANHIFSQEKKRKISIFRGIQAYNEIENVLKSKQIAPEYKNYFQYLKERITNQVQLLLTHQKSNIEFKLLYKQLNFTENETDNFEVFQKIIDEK
Assay: Inactivation of Bacillus anthracis edema factor in presence of CaM incubated for 10 to 240 mins by EnzChek pyrophosphate assay

`Nc1cc(OC2CCN(C(=O)c3ccc(S(=O)(=O)F)cc3)CC2)ccn1` gave a Ki of 59.1 µM.
